Reference: patent US20040232089A1, “Biocidal compounds for treating water” (VANETTA S.p.A., priority 2003, published 2004)

Tests used:
[1] = tested on: Balanus amphitrite nauplii; assay: Barnacle efficacy test; assay type: in vivo
Procedure: This efficacy tests was carried out by using Balanus amphitrite nauplii (Crustacea: Cirripedia). Specimens of this organism are collected in nature, and then maintained and reared in our laboratories, following a standard methodology. Adult organisms regularly produce larvae at the second naupliar stage, characterized by the typical triangular carapace, with a shield shape. […] Stage II nauplii have been used; immediately after their emission from adults larvae were divided and put in a beaker with […] filtered natural sea-water.

[2] = tested on: Aeromonas sp. CH34; assay: Microdilution broth MIC/MBC; assay type: cell-based; settings: 24 h at 25° C., dark
Procedure: (§1) b) Serial dilution test: the antibiotic activity is determined quantitatively by using the known sensitivity of a test strain towards an antibiotic which is expressed numerically as the minimal inhibitory concentration (MIC) and the minimal bactericidal concentration (MBC).
(§2) Procedure: serial dilutions of the antibiotic to be tested are pipetted into the antibiotic broth, this is then inoculated with a defined quantity of the relevant test strain (FIG. 4).
(§3) The Minimum Inhibitory Concentration (MIC) was defined as the lowest concentration of antibiotic which prevented visual turbidity after incubation.
(§4) The Minimum Bactericidal Concentration (MBC) is defined as the lowest concentration of an antibiotic killing the majority of a bacterial inoculum (99.9%, equivalent to a thousand-fold reduction of the inoculum). Method: Following a broth dilution MIC test, from each tube in the dilution series a defined volume (20 μL) is spread onto plates without antibiotics. To minimize the carry-over effect of antibiotic from the test tubes, let the drop “dry” before the inoculum is spread over the surface (a section of the agar plate). The plates were incubate overnight (longer for slow growing bacteria) and then counted the number of colonies growing from each of the test tubes. The number of colonies corresponding to a thousand-fold reduction (MBC) can be calculated if the colony count of the start inoculum is known.
(§5) The microdilution broth method was used to evaluate the MIC and the MBC against 15 aerobic bacteria isolated from culture collection and seawater. Antimicrobial dilutions were performed using Mueller Hinton Broth supplemented with divalent cations. The tested product was dissolved in the medium to obtain a final range concentration between 0,12 to 64 mg/l.
(§6) Antimicrobial assays were performed in dark, and results were read after 24 h of incubation at 25° C. Each test towards the same indicator strain was performed in three replicates.
(§7) The assayed strains were environment isolates identified by an internal number or standard strains identified by the ATCC or NCIMB accession number.

[3] = tested on: Micrococcus sp. AE11; assay: Microdilution broth MIC/MBC; assay type: cell-based; settings: 24 h at 25° C., dark
Procedure: as §1, §2, §3, §4, §5, §6, §7

[4] = tested on: Pseudomonas aeruginosa ATCC 10145; assay: Microdilution broth MIC/MBC; assay type: cell-based; settings: 24 h at 25° C., dark
Procedure: as §1, §2, §3, §4, §5, §6, §7

[5] = tested on: Escherichia coli ATCC 25922; assay: Microdilution broth MIC/MBC; assay type: cell-based; settings: 24 h at 25° C., dark
Procedure: as §1, §2, §3, §4, §5, §6, §7

[6] = tested on: Corynebacterium sp. CT15; assay: Microdilution broth MIC/MBC; assay type: cell-based; settings: 24 h at 25° C., dark
Procedure: as §1, §2, §3, §4, §5, §6, §7

[7] = tested on: Bacillus licheniformis NCIMB 1525; assay: Microdilution broth MIC/MBC; assay type: cell-based; settings: 24 h at 25° C., dark
Procedure: as §1, §2, §3, §4, §5, §6, §7

[8] = tested on: Vibrio parahaemolyticus AD19; assay: Microdilution broth MIC/MBC; assay type: cell-based; settings: 24 h at 25° C., dark
Procedure: as §1, §2, §3, §4, §5, §6, §7

[9] = tested on: Vibrio sp. AE7; assay: Microdilution broth MIC/MBC; assay type: cell-based; settings: 24 h at 25° C., dark
Procedure: as §1, §2, §3, §4, §5, §6, §7

[10] = tested on: Bacillus subtilis ATCC 10774; assay: Microdilution broth MIC/MBC; assay type: cell-based; settings: 24 h at 25° C., dark
Procedure: as §1, §2, §3, §4, §5, §6, §7

[11] = tested on: Micrococcus sp. AD10; assay: Microdilution broth MIC/MBC; assay type: cell-based; settings: 24 h at 25° C., dark
Procedure: as §1, §2, §3, §4, §5, §6, §7

[12] = tested on: Vibrio sp. CH45; assay: Microdilution broth MIC/MBC; assay type: cell-based; settings: 24 h at 25° C., dark
Procedure: as §1, §2, §3, §4, §5, §6, §7

[13] = tested on: Pseudomonas elongata NCIMB 1141; assay: Microdilution broth MIC/MBC; assay type: cell-based; settings: 24 h at 25° C., dark
Procedure: as §1, §2, §3, §4, §5, §6, §7

[14] = tested on: Pseudomonas putida NCIMB 1960; assay: Microdilution broth MIC/MBC; assay type: cell-based; settings: 24 h at 25° C., dark
Procedure: as §1, §2, §3, §4, §5, §6, §7

[15] = tested on: Vibrio sp. AD18; assay: Microdilution broth MIC/MBC; assay type: cell-based; settings: 24 h at 25° C., dark
Procedure: as §1, §2, §3, §4, §5, §6, §7

[16] = Biodegradability OECD 301 A (92/69/EEC C4-A); settings: 7 days after the beginning of the test
Procedure: In fact, based on data available with respect to the most similar compounds to the menadione derivatives disclosed herein, one would expect a degradability in the range of 0% (percentage calculated based on the initial mass expressed in mg/l) typical of menadione (2-methyl-1,4-naphthalenedione) and 17% (assessed after 28 days) typical of menadione sodium bisulphite (which calculation was performed in accordance with the guidelines OECD301 A attached to directive EEC 92/69/EEC C4-A).
Finally biodegradability was also evaluated according to standard 92/69/EEC C4-A. From the data, both MNB and MPB result to have a remarkably better biodegradability than 2-methyl-1,4-naphthalenedione and particularly than MSB.

[17] = tested on: Mytilus galloprovincialis; assay: Mussels efficacy test (trocophora and veliger larvae); assay type: in vivo; settings: after 24 hours
Procedure: Mussels are bivalve shellfish that grow quickly and profusely. They have two identical, convex shells. These shells are elongate, triangular and joined by a rubbery hinge ligament on the upper side. There are three main periods in the Mytilus galloprovincialis life cycle: the larval, juvenile, and adult stages. The larvae are planktonic (float in water column) during their initial three life stages: trochophore, veliger, and pediveliger.
Efficacy tests were carried out by using two larval stages of this organism: trocophora and veliger. Adult specimens of this organism were collected and transferred into our laboratories, where they were cleaned from debris, and put in single 200 ml beakers, with […] filtered natural sea-water. Through a thermal shock, sexual products (eggs and sperma) were obtained. Fertilized eggs (about 300.000) were filtered and put in 1000 ml beakers, with […] filtered natural sea-water. Cultures were maintained at 20° C., with a photoperiod of 16:8 light:dark. After the first 24 hours post-fertilization, trocophora stage is present. Larvae were reared and fed with a planktonic alga, Pavlova lutheri, every day they were filtered, and water was changed. Veliger stage is reached about 48-72 hours after fertilization.

[18] = Hydrolysis test carried out in the dark; assay type: physicochemical
Text: From the hydrolysis test carried out in the dark, MNB and MPB appear to be readily degradable at a pH compatible with environmental conditions.

## CC1(S(=O)(=O)O)CC(=O)c2ccccc2C1=O.NC(=O)c1cccnc1 (centres unmarked) [MNB, menadione nicotinamide bisulphite]
[1]; 24 hours
  LC50: 0.228 mg/L
[1]; 48 hours
  LC50: 0.222 mg/L
[2]
  MBC: 64 mg/L
  MIC: 32 mg/L
[3]
  MBC: 16 mg/L
  MIC: 8 mg/L
[4]
  MBC: >64 mg/L
  MIC: >64 mg/L
[5]
  MBC: >64 mg/L
  MIC: >64 mg/L
[6]
  MBC: 16 mg/L
  MIC: 8 mg/L
[7]
  MBC: 32 mg/L
  MIC: 16 mg/L
[8]
  MBC: 4 mg/L
  MIC: 1 mg/L
[9]
  MBC: 64 mg/L
  MIC: 32 mg/L
[10]
  MBC: 32 mg/L
  MIC: 12 mg/L
[11]
  MBC: 32 mg/L
  MIC: 16 mg/L
[12]
  MBC: 16 mg/L
  MIC: 16 mg/L
[13]
  MBC: 16 mg/L
  MIC: 8 mg/L
[14]
  MBC: >64 mg/L
  MIC: >64 mg/L
[15]
  MBC: 32 mg/L
  MIC: 16 mg/L
[16]
  degradability relative to that of MSB: eight
[17]; trocophorae
  LC50: 0.108 mg/L
[17]; veliger
  LC50: 0.167 mg/L
[18]; pH 6, 8, in the dark
  ½ LIFE (hydrolysis): 48 h
[18]; pH 9, in the dark
  ½ LIFE (hydrolysis): <3 h
